In this assay the test system is HL-60. In words: Inhibition of [3H]arachidonic acid production by stimulated HL60 cells. Type of assay: functional, cell-based. The following applies: Homo sapiens.

For the compound `CCCCCCCCCCOc1ccc(OCC(=O)COc2ccc(C(=O)O)cc2)cc1`, the IC50 (in general, the midpoint of a concentration-inhibition curve) is 2.8 µM.
The compound `CCCCC/C=C\C/C=C\C/C=C\C/C=C\CCCC(=O)C(F)(F)F` [ARACHIDONYL TRIFLUOROMETHYLKETONE] yielded an IC50 of 29 µM.
